The target in this assay is T1, Dopamine beta-hydroxylase (Rattus norvegicus, UniProt Q05754).
T1 sequence (Q05754 whole entry): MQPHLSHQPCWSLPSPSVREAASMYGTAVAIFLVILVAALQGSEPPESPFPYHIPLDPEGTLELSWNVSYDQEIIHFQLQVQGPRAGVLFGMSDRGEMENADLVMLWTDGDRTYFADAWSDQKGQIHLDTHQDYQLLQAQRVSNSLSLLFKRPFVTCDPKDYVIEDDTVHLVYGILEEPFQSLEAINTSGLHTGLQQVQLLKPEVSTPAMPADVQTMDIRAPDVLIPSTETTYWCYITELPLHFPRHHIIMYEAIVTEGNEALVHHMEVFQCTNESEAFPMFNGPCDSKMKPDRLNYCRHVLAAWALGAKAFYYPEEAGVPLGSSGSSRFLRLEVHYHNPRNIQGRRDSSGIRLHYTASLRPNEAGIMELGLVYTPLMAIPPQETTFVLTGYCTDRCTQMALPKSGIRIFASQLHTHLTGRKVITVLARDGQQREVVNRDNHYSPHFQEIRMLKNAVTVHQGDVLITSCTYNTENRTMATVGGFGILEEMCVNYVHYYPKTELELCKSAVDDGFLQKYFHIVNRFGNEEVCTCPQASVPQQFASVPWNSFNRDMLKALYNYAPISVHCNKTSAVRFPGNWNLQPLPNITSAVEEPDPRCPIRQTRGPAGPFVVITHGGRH
Nature of the assay: Inhibition of dopamine beta-hydroxylase (DbetaH) […].

SMILES strings stand for the structures.

The IC50 is the concentration at which inhibition is half-maximal. For `S=c1[nH]ccn1Cc1c(Cl)cc(Cl)cc1Cl`, the concentration for half-maximal inhibition (IC50) was 102 µM. In turn, `Cc1ccc(Cn2cc[nH]c2=S)cc1` had a half-maximal inhibitory concentration (IC50) of 148 µM. In turn, `COc1ccccc1Cn1cc[nH]c1=S` had an IC50 of 74.1 µM.

For `Oc1ccccc1Cn1cc[nH]c1=S`, the IC50 is 575 µM. As to `COc1c(F)cc(Cn2cc[nH]c2=S)cc1F`, the half-maximal inhibitory concentration (IC50) is 36.3 µM. The result for `Cc1ccccc1Cn1cc[nH]c1=S` reads 339 µM. In the case of `S=c1[nH]ccn1Cc1cc(Cl)cc(Cl)c1`, the IC50 was 2.4 µM. The compound `Oc1ccc(Cn2cc[nH]c2=S)cc1Br` gave an IC50 of 12 µM. The compound `Cc1cccc(C)c1Cn1cc[nH]c1=S` showed a concentration for half-maximal inhibition (IC50) of 1000 µM. The result for `COc1ccc(Cn2cc[nH]c2=S)cc1Br` reads 83.2 µM. As for `COc1ccc(Cn2cc[nH]c2=S)cc1`, the figure is 204 µM; as for `Fc1ccc(Cn2cc[nH]c2=S)cc1`, 46.8 µM. For `O=[N+]([O-])c1cc(Cn2cc[nH]c2=S)ccc1O`, the IC50 was 30.9 µM. Take `COc1cccc(Cn2cc[nH]c2=S)c1`: the midpoint of inhibition, the IC50, lay at 158 µM. On to `COc1c(Cl)cc(Cn2cc[nH]c2=S)cc1Cl`, for which the IC50 is 46.8 µM. As for `S=c1[nH]ccn1Cc1ccc(Cl)cc1`, the figure is 95.5 µM; as for `S=c1[nH]ccn1Cc1ccccc1`, 33.1 µM. The result for `Oc1ccc(Cn2cc[nH]c2=S)cc1F` reads 1.51 µM. The result for `COc1ccc(Cn2cc[nH]c2=S)cc1OC` reads 339 µM. Regarding `Oc1ccc(Cn2cc[nH]c2=S)cc1C(F)(F)F`, half-maximal inhibition (IC50) was put at 120 µM. As for `Oc1cc(Cl)c(Cn2cc[nH]c2=S)c(Cl)c1`, the figure is 75.9 µM. As for `Oc1c(F)cc(Cn2cc[nH]c2=S)cc1F`, the figure is 0.0741 µM; as for `COc1cccc(OC)c1Cn1cc[nH]c1=S`, 501 µM. The result for `S=c1[nH]ccn1Cc1cccc(Cl)c1Cl` reads 52.5 µM; that for `FC(F)(F)c1ccc(Cn2cc[nH]c2=S)cc1`, 200 µM; that for `Oc1ccc(Cn2cc[nH]c2=S)cc1O`, 2.19 µM.

Take `S=c1[nH]ccn1Cc1ccccc1Cl`: half-maximal inhibition (IC50) required 355 µM.

Compound `S=c1[nH]ccn1Cc1ccc(Cl)cc1Cl` showed a concentration for half-maximal inhibition (IC50) of 17 µM. For the compound `S=c1[nH]ccn1Cc1cccc(Cl)c1`, the IC50 is 12 µM.

Compound `COc1ccc(Cn2cc[nH]c2=S)cc1F` had a half-maximal inhibitory concentration (IC50) of 74.1 µM.

`S=c1[nH]ccn1Cc1c(Cl)cccc1Cl` showed an IC50 of 708 µM.

The compound `Oc1c(Cl)cc(Cn2cc[nH]c2=S)cc1Cl` gave an IC50 of 0.676 µM.

In the case of `Oc1cccc(Cn2cc[nH]c2=S)c1`, 148 µM corresponded to half-maximal inhibition (IC50). In turn, `COc1ccc(Cn2cc[nH]c2=S)cc1C` showed a half-maximal inhibitory concentration (IC50) of 69.2 µM.

With `Cc1cc(Cn2cc[nH]c2=S)ccc1O`, the IC50 was 49 µM. The result for `S=c1[nH]ccn1Cc1ccc(Br)cc1` reads 115 µM; that for `COc1ccc(Cn2cc[nH]c2=S)cc1C(F)(F)F`, 174 µM.

Consider `Oc1ccc(Cn2cc[nH]c2=S)cc1Cl`, for which the 50% inhibitory concentration (IC50) is 2 µM. The result for `Fc1cccc(Cn2cc[nH]c2=S)c1` reads 5.62 µM; that for `O=[N+]([O-])c1ccc(Cn2cc[nH]c2=S)cc1`, 52.5 µM; that for `S=c1[nH]ccn1Cc1cc(Cl)ccc1Cl`, 97.7 µM. As for `COc1ccc(Cn2cc[nH]c2=S)cc1[N+](=O)[O-]`, the figure is 355 µM. As to `COc1cc(Cl)c(Cn2cc[nH]c2=S)c(Cl)c1`, the IC50 is 155 µM. As for `S=c1[nH]ccn1Cc1ccc(Cl)c(Cl)c1`, the figure is 28.2 µM. `Oc1c(F)c(F)c(Cn2cc[nH]c2=S)c(F)c1F` showed a half-maximal inhibitory concentration (IC50) of 61.7 µM.

These data come from ChEMBL document CHEMBL1124945, “1-(substituted-benzyl)imidazole-2(3H)-thione inhibitors of dopamine beta-hydroxylase” (J Med Chem, 1990).
